Test results as given in paper PMC11025498, “First-in-human Phase I Trial of TPST-1120, an Inhibitor of PPARα, as Monotherapy or in Combination with Nivolumab, in Patients with Advanced Solid Tumors” (Cancer Research Communications, 2024).
Where two headings read alike, the source gives them in different places.

Legend:
[1] = tested on: RCC; assay: prior regimens of the RCC responders; format: in vivo, human; settings: prior regimens of person RCC responder
[2] = tested on: patients with RCC; settings: nivolumab monotherapy after previous ICI therapy, retrospective, cited from earlier work
[3] = tested on: patients with PD-L1 combined positive score ≤1; parameters: method as in PMID 32359091, PMID 32352498, PMID 35611499, PMID 34907910; settings: CCA, KEYNOTE-158; cited from earlier work

Molecule: COc1cc2nccc(Oc3ccc(NC(=O)C4(C(=O)Nc5ccc(F)cc5)CC4)cc3)c2cc1OC [Cabozantinib]
- Duration [1]: 6.3 mo

Molecule: nivolumab: PD-1 inhibitor
- ORR ([2]; ref 33): 16%
- ORR ([2]; ref 34): 23%

Molecule: CO[C@H]1C[C@@H]2CC[C@@H](C)[C@@](O)(O2)C(=O)C(=O)N2CCCC[C@H]2C(=O)O[C@H]([C@H](C)C[C@@H]2CC[C@@H](OCCO)[C@H](OC)C2)CC(=O)[C@H](C)/C=C(\C)[C@@H](O)[C@@H](OC)C(=O)[C@H](C)C[C@H](C)/C=C/C=C/C=C/1C [Everolimus]
- Duration [1]: 6.1 mo

Molecule: pembrolizumab: ICI monotherapy in the KEYNOTE-158 trial
- ORR [3]: 2.9%
